According to the supplement of paper PMC10307832:

Columns and labels:
Assay in all cases: relative viability (nuclei count vs DMSO), 5 days (fraction); higher = more cells survive
KN-93 + Luminespib = compound: CN(C/C=C/C1=CC=C(C=C1)Cl)CC2=CC=CC=C2N(CCO)S(=O)(=O)C3=CC=C(C=C3)OC [KN-93] + CCNC(=O)c1noc(-c2cc(C(C)C)c(O)cc2O)c1-c1ccc(CN2CCOCC2)cc1 [Luminespib] (partner 0.01 µM)
Summary of the method: (§1)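 Lung cancer cell lines were seeded in 1536-well plates and dosed by pin tool the next day, with either a single drug or a fixed anchor-drug dose combined with five library-drug doses (not always all listed) spaced in √10 steps. Five days later, one step fixed the cells and stained their nuclei (final 0.05% Triton X-100, 1% formaldehyde, 1 ug/ml Hoechst), and nuclei were counted on 4× images. Relative viability is the nuclei count in treated wells divided by the count in vehicle wells, and each value is the median of duplicate plates.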

KN-93 + Decitabine = compound: CN(C/C=C/C1=CC=C(C=C1)Cl)CC2=CC=CC=C2N(CCO)S(=O)(=O)C3=CC=C(C=C3)OC [KN-93] + Nc1ncn([C@H]2C[C@H](O)[C@@H](CO)O2)c(=O)n1 [Decitabine] (partner 2 µM)
Summary of the method: as §1

KN-93 + Trametinib = compound: CN(C/C=C/C1=CC=C(C=C1)Cl)CC2=CC=CC=C2N(CCO)S(=O)(=O)C3=CC=C(C=C3)OC [KN-93] + CC(=O)Nc1cccc(-n2c(=O)n(C3CC3)c(=O)c3c(Nc4ccc(I)cc4F)n(C)c(=O)c(C)c32)c1 [Trametinib] (partner 0.02 µM)
Summary of the method: as §1

KN-93 + Navitoclax = compound: CN(C/C=C/C1=CC=C(C=C1)Cl)CC2=CC=CC=C2N(CCO)S(=O)(=O)C3=CC=C(C=C3)OC [KN-93] + CC1(C)CCC(c2ccc(Cl)cc2)=C(CN2CCN(c3ccc(C(=O)NS(=O)(=O)c4ccc(N[C@H](CCN5CCOCC5)CSc5ccccc5)c(S(=O)(=O)C(F)(F)F)c4)cc3)CC2)C1 [Navitoclax] (partner 0.5 µM)
Summary of the method: as §1

KN-93 + AZD7762 = compound: CN(C/C=C/C1=CC=C(C=C1)Cl)CC2=CC=CC=C2N(CCO)S(=O)(=O)C3=CC=C(C=C3)OC [KN-93] + NC(=O)Nc1cc(-c2cccc(F)c2)sc1C(=O)N[C@H]1CCCNC1 [AZD7762] (partner 0.2 µM)
Summary of the method: as §1

| Cell Line | relative viability (KN-93 + Luminespib; first compound 0.08 µM) | relative viability (KN-93 + Luminespib; first compound 0.253 µM) | relative viability (KN-93 + Luminespib; first compound 2.53 µM) | relative viability (KN-93 + Luminespib; first compound 8 µM) | relative viability (KN-93 + Decitabine; first compound 0.08 µM) | relative viability (KN-93 + Decitabine; first compound 0.253 µM) | relative viability (KN-93 + Decitabine; first compound 2.53 µM) | relative viability (KN-93 + Decitabine; first compound 8 µM) | relative viability (KN-93 + Trametinib; first compound 0.08 µM) | relative viability (KN-93 + Trametinib; first compound 0.253 µM) | relative viability (KN-93 + Trametinib; first compound 2.53 µM) | relative viability (KN-93 + Trametinib; first compound 8 µM) | relative viability (KN-93 + Navitoclax; first compound 0.08 µM) | relative viability (KN-93 + Navitoclax; first compound 0.253 µM) | relative viability (KN-93 + Navitoclax; first compound 2.53 µM) | relative viability (KN-93 + Navitoclax; first compound 8 µM) | relative viability (KN-93 + AZD7762; first compound 0.08 µM) | relative viability (KN-93 + AZD7762; first compound 0.253 µM) | relative viability (KN-93 + AZD7762; first compound 2.53 µM) | relative viability (KN-93 + AZD7762; first compound 8 µM) |
| --- | --- | --- | --- | --- | --- | --- | --- | --- | --- | --- | --- | --- | --- | --- | --- | --- | --- | --- | --- | --- |
| LC-2-ad | 1.11 | 1.15 | 0.94 | 0.818 | 0.775 | 0.772 | 0.911 | 0.702 | 0.794 | 0.989 | 0.88 | 0.75 | 0.425 | 0.414 | 0.364 | 0.129 | 0.775 | 0.958 | 0.953 | 0.785 |
| LCLC-97TM1 | 0.717 | 0.845 | 0.849 | 0.714 | 0.288 | 0.208 | 0.279 | 0.211 | 0.185 | 0.181 | 0.163 | 0.153 | 0.287 | – | 0.527 | 0.238 | 0.289 | 0.279 | 0.198 | 0.224 |
| LK-2 | 0.225 | 0.176 | 0.212 | 0.174 | 0.276 | 0.293 | 0.315 | 0.278 | 0.715 | 0.867 | 0.929 | 0.78 | 0.743 | 0.677 | 1.12 | 0.567 | 0.419 | 0.366 | 0.428 | 0.3 |
| LOU-NH91 | 0.399 | 0.353 | 0.331 | 0.321 | 0.833 | 0.769 | 0.795 | 0.786 | 0.789 | 0.677 | 0.822 | 0.716 | 0.621 | 0.63 | 0.709 | 0.545 | 0.731 | 0.659 | 0.802 | 0.623 |
| LU99A | 0.222 | 0.23 | 0.327 | 0.246 | 0.777 | 0.893 | 0.859 | 0.711 | 0.603 | 0.626 | 0.496 | 0.431 | 0.86 | 0.787 | 0.763 | 0.609 | 0.31 | 0.323 | 0.38 | 0.336 |
| LXF-289 | 0.536 | 0.833 | 0.787 | 0.588 | 0.391 | 0.413 | 0.416 | 0.388 | 0.661 | 0.69 | 0.666 | 0.592 | 0.97 | 1.08 | 0.918 | 0.631 | 0.813 | 1.15 | 1.18 | 0.978 |
| NCI-H23 | 0.227 | 0.185 | 0.199 | 0.212 | 0.849 | 0.306 | 0.296 | 0.288 | 0.331 | 0.397 | 0.432 | 0.326 | 0.721 | 0.988 | 0.933 | 0.816 | 0.286 | 0.214 | 0.235 | 0.106 |
| NCI-H322M | 0.921 | 0.793 | 0.954 | 0.752 | 0.733 | 0.725 | 0.69 | 0.699 | 0.478 | 0.575 | 0.488 | 0.442 | 1.19 | 1.09 | 1.2 | 1.11 | 0.549 | 0.53 | 0.555 | 0.51 |
| NCI-H441 | 0.295 | 0.417 | 0.36 | 0.287 | – | 0.203 | 0.261 | 0.197 | – | 0.422 | 0.401 | 0.177 | – | 0.573 | 0.747 | 0.238 | – | 1.36 | 1.19 | 1.06 |
| NCI-H460 | 0.0407 | 0.0268 | 0.0273 | 0.0309 | 0.282 | 0.409 | 0.579 | 0.46 | 0.167 | 0.111 | 0.195 | 0.0953 | 0.39 | 1.29 | – | 0.63 | 0.563 | 0.556 | 0.731 | 0.328 |
| NCI-H596 | 0.924 | 1.34 | 1.21 | 0.789 | 1.03 | 1.19 | 1.08 | 0.824 | 0.708 | 0.847 | 0.836 | 0.586 | 0.996 | 0.891 | 0.966 | 0.575 | 1 | 1.08 | 1.11 | 0.845 |
| NCI-H647 | 0.168 | 0.145 | 0.13 | 0.109 | 0.373 | 0.487 | 0.444 | 0.409 | 0.353 | 0.499 | 0.468 | 0.466 | 0.976 | 1.41 | 1.39 | 0.715 | 0.398 | 0.557 | 0.447 | 0.381 |
| NCI-H727 | 0.367 | 0.326 | 0.351 | 0.376 | 0.795 | – | 0.816 | 0.827 | 0.32 | – | 0.384 | 0.409 | 0.464 | 0.4 | 0.285 | 0.17 | 0.643 | – | 0.627 | 0.471 |
| NCI-H838 | 0.306 | 0.268 | 0.197 | 0.223 | 0.436 | 0.455 | 0.487 | 0.427 | 0.563 | 0.482 | 0.522 | 0.509 | 1.04 | 1.06 | 1.31 | 0.946 | 0.842 | 0.884 | 0.992 | 0.831 |
| NCI-H1355 | 0.616 | 0.636 | 0.574 | 0.552 | 0.367 | 0.298 | 0.317 | 0.315 | 0.436 | 0.324 | 0.375 | 0.343 | 0.874 | 0.722 | 0.916 | 0.74 | 0.822 | 0.694 | 0.826 | 0.703 |
| NCI-H1395 | 0.631 | 0.619 | 0.664 | 0.604 | 0.713 | 0.739 | 0.745 | 0.615 | 1.03 | 1.19 | 1.07 | 0.775 | 1.11 | 1.22 | 1.34 | 0.566 | 0.421 | 0.403 | 0.391 | 0.345 |
| NCI-H1437 | 0.999 | 1.3 | 0.907 | 0.559 | 0.519 | 0.768 | 0.533 | 0.405 | 0.444 | 0.471 | 0.454 | 0.377 | 0.92 | 1.23 | 1.07 | 0.476 | 1.16 | 1.29 | 1.24 | 0.654 |
| NCI-H1651 | 0.757 | 0.829 | 0.757 | 0.546 | 0.594 | 0.597 | 0.623 | 0.534 | 0.79 | 0.886 | 0.689 | 0.683 | 0.997 | 1.08 | 1.09 | 0.482 | 0.394 | 0.505 | 0.526 | 0.353 |
| NCI-H1666 | 0.946 | 1.13 | 1.1 | 0.941 | 0.705 | 0.716 | 0.783 | 0.748 | 0.899 | 0.788 | 1.07 | 0.716 | 0.863 | 0.799 | 0.982 | 0.863 | 0.863 | 0.874 | 0.802 | 0.788 |
| NCI-H1734 | 0.167 | 0.17 | 0.181 | 0.179 | 0.465 | 0.596 | 0.502 | 0.442 | 0.624 | 0.775 | 0.653 | 0.405 | 0.649 | 0.964 | 0.816 | 0.622 | 0.465 | 0.627 | 0.597 | 0.441 |
| NCI-H1755 | 0.457 | 0.436 | 0.285 | 0.221 | 0.752 | 0.723 | 0.696 | 0.703 | 0.717 | 0.827 | 0.76 | 0.699 | 0.844 | 1.03 | 1.07 | 0.815 | 0.392 | 0.411 | 0.444 | 0.407 |
| NCI-H1792 | 0.272 | 0.396 | 0.31 | 0.367 | 0.278 | 0.489 | 0.602 | 0.535 | 0.277 | 0.441 | 0.487 | 0.275 | – | 0.705 | 0.75 | 0.492 | 0.583 | 0.504 | 0.683 | 0.353 |
| NCI-H1793 | 0.193 | 0.179 | 0.195 | 0.166 | 0.595 | 0.494 | 0.465 | 0.43 | 0.44 | 0.42 | 0.472 | 0.339 | – | 0.398 | 0.385 | 0.244 | 0.358 | 0.458 | 0.454 | 0.159 |
| NCI-H1915 | 0.567 | 1.47 | 0.846 | 0.748 | 0.274 | 0.261 | 0.26 | 0.246 | 0.304 | 0.339 | 0.281 | 0.247 | 0.736 | 0.813 | 0.823 | 0.742 | 0.67 | 0.735 | 0.632 | 0.671 |
| NCI-H1944 | 0.741 | 0.699 | 0.729 | 0.43 | 0.45 | 0.414 | 0.413 | 0.395 | 0.419 | 0.385 | 0.432 | 0.328 | 1.09 | 1.01 | 1.04 | 0.896 | 0.527 | 0.433 | 0.585 | 0.579 |
| NCI-H1975 | 0.187 | 0.241 | 0.164 | 0.135 | 0.389 | 0.361 | 0.412 | 0.272 | 0.29 | 0.291 | 0.307 | 0.179 | 0.797 | 1.36 | 1.26 | 0.756 | 0.664 | 0.599 | 0.72 | 0.558 |
| NCI-H1993 | 0.677 | 0.756 | 0.929 | 0.638 | 0.573 | 0.548 | 0.579 | 0.601 | 0.547 | 0.542 | 0.498 | 0.501 | 0.939 | 0.71 | 0.861 | 0.632 | 0.608 | 0.654 | 0.708 | 0.586 |
